Source: the NIST ThermoML archive (doi:10.1021/acs.jced.8b01097)
Numbers after ± are expanded uncertainties.

Experiment: xn = mol fraction of the nth substance listed
Details: 85 kPa, Liquid; for viscosity: Concentric cylinders viscometry; for mass density: Vibrating tube method

CCC(C)O (centres undefined) [butan-2-ol] + CCCO
Details | mass density [kg/m3] | viscosity [mPa·s]
293.15 K, x1 = 0.0818 | 804.1 ± 1 | 2.323 ± 0.14
293.15 K, x1 = 0.1601 | 804.6 ± 1 | 2.428 ± 0.15
293.15 K, x1 = 0.2399 | 805 ± 1 | 2.54 ± 0.15
293.15 K, x1 = 0.3499 | 805.5 ± 1 | 2.702 ± 0.16
293.15 K, x1 = 0.4399 | 805.8 ± 1 | 2.838 ± 0.17
293.15 K, x1 = 0.56 | 806 ± 1 | 3.023 ± 0.18
293.15 K, x1 = 0.6515 | 806.1 ± 1 | 3.166 ± 0.19
293.15 K, x1 = 0.7385 | 806.2 ± 1 | 3.304 ± 0.2
293.15 K, x1 = 0.85 | 806.3 ± 1 | 3.486 ± 0.21
293.15 K, x1 = 0.9407 | 806.3 ± 1 | 3.639 ± 0.22
293.15 K, x1 = 1 | 806.2 ± 1 | 3.743 ± 0.23
298.15 K, x1 = 0.0818 | 800.1 ± 1 | 2.047 ± 0.12
298.15 K, x1 = 0.1601 | 800.6 ± 1 | 2.126 ± 0.13
298.15 K, x1 = 0.2399 | 801 ± 1 | 2.211 ± 0.13
298.15 K, x1 = 0.3499 | 801.5 ± 1 | 2.331 ± 0.14
298.15 K, x1 = 0.4399 | 801.8 ± 1 | 2.432 ± 0.15
298.15 K, x1 = 0.56 | 802 ± 1 | 2.57 ± 0.15
298.15 K, x1 = 0.6515 | 802.1 ± 1 | 2.676 ± 0.16
298.15 K, x1 = 0.7385 | 802.2 ± 1 | 2.778 ± 0.17
298.15 K, x1 = 0.85 | 802.2 ± 1 | 2.913 ± 0.18
298.15 K, x1 = 0.9407 | 802.1 ± 1 | 3.025 ± 0.18
298.15 K, x1 = 1 | 802 ± 1 | 3.101 ± 0.19
303.15 K, x1 = 0.0818 | 796.1 ± 1 | 1.824 ± 0.11
303.15 K, x1 = 0.1601 | 796.7 ± 1 | 1.893 ± 0.11
303.15 K, x1 = 0.2399 | 797.1 ± 1 | 1.962 ± 0.12
303.15 K, x1 = 0.3499 | 797.6 ± 1 | 2.057 ± 0.12
303.15 K, x1 = 0.4399 | 797.9 ± 1 | 2.134 ± 0.13
303.15 K, x1 = 0.56 | 798.1 ± 1 | 2.228 ± 0.14
303.15 K, x1 = 0.6515 | 798.2 ± 1 | 2.31 ± 0.14
303.15 K, x1 = 0.7385 | 798.2 ± 1 | 2.38 ± 0.14
303.15 K, x1 = 0.85 | 798.2 ± 1 | 2.466 ± 0.15
303.15 K, x1 = 0.9407 | 798.1 ± 1 | 2.536 ± 0.15
303.15 K, x1 = 1 | 797.9 ± 1 | 2.579 ± 0.16
308.15 K, x1 = 0.0818 | 792.1 ± 1 | 1.619 ± 0.098
308.15 K, x1 = 0.1601 | 792.7 ± 1 | 1.672 ± 0.1
308.15 K, x1 = 0.2399 | 793.1 ± 1 | 1.724 ± 0.1
308.15 K, x1 = 0.3499 | 793.6 ± 1 | 1.795 ± 0.11
308.15 K, x1 = 0.4399 | 793.8 ± 1 | 1.851 ± 0.11
308.15 K, x1 = 0.56 | 794 ± 1 | 1.925 ± 0.12
308.15 K, x1 = 0.6515 | 794.1 ± 1 | 1.98 ± 0.12
308.15 K, x1 = 0.7385 | 794.1 ± 1 | 2.03 ± 0.12
308.15 K, x1 = 0.85 | 794 ± 1 | 2.089 ± 0.13
308.15 K, x1 = 0.9407 | 793.8 ± 1 | 2.135 ± 0.13
308.15 K, x1 = 1 | 793.6 ± 1 | 2.162 ± 0.13
313.15 K, x1 = 0.0818 | 788.1 ± 1 | 1.444 ± 0.087
313.15 K, x1 = 0.1601 | 788.7 ± 1 | 1.485 ± 0.09
313.15 K, x1 = 0.2399 | 789.1 ± 1 | 1.525 ± 0.092
313.15 K, x1 = 0.3499 | 789.6 ± 1 | 1.58 ± 0.095
313.15 K, x1 = 0.4399 | 789.8 ± 1 | 1.622 ± 0.098
313.15 K, x1 = 0.56 | 789.9 ± 1 | 1.676 ± 0.1
313.15 K, x1 = 0.6515 | 789.9 ± 1 | 1.713 ± 0.1
313.15 K, x1 = 0.7385 | 789.8 ± 1 | 1.747 ± 0.11
313.15 K, x1 = 0.85 | 789.7 ± 1 | 1.786 ± 0.11
313.15 K, x1 = 0.9407 | 789.5 ± 1 | 1.814 ± 0.11
313.15 K, x1 = 1 | 789.2 ± 1 | 1.828 ± 0.11
318.15 K, x1 = 0.0818 | 784 ± 1 | 1.293 ± 0.078
318.15 K, x1 = 0.1601 | 784.6 ± 1 | 1.326 ± 0.08
318.15 K, x1 = 0.2399 | 785.1 ± 1 | 1.358 ± 0.082
318.15 K, x1 = 0.3499 | 785.5 ± 1 | 1.398 ± 0.085
318.15 K, x1 = 0.4399 | 785.7 ± 1 | 1.429 ± 0.086
318.15 K, x1 = 0.56 | 785.8 ± 1 | 1.467 ± 0.089
318.15 K, x1 = 0.6515 | 785.7 ± 1 | 1.493 ± 0.09
318.15 K, x1 = 0.7385 | 785.6 ± 1 | 1.516 ± 0.092
318.15 K, x1 = 0.85 | 785.3 ± 1 | 1.54 ± 0.093
318.15 K, x1 = 0.9407 | 785.1 ± 1 | 1.555 ± 0.094
318.15 K, x1 = 1 | 784.7 ± 1 | 1.559 ± 0.094
323.15 K, x1 = 0.0818 | 779.9 ± 1 | 1.16 ± 0.07
323.15 K, x1 = 0.1601 | 780.5 ± 1 | 1.185 ± 0.072
323.15 K, x1 = 0.2399 | 781 ± 1 | 1.209 ± 0.073
323.15 K, x1 = 0.3499 | 781.4 ± 1 | 1.24 ± 0.075
323.15 K, x1 = 0.4399 | 781.5 ± 1 | 1.263 ± 0.076
323.15 K, x1 = 0.56 | 781.5 ± 1 | 1.29 ± 0.078
323.15 K, x1 = 0.6515 | 781.4 ± 1 | 1.308 ± 0.079
323.15 K, x1 = 0.7385 | 781.3 ± 1 | 1.322 ± 0.08
323.15 K, x1 = 0.85 | 781 ± 1 | 1.336 ± 0.081
323.15 K, x1 = 0.9407 | 780.6 ± 1 | 1.341 ± 0.081
323.15 K, x1 = 1 | 780.2 ± 1 | 1.318 ± 0.08
